We go through seven molecules from US9388149B2, “Disubstituted 3,4-diamino-3-cyclobutene-1,2-dione compounds for use in the treatment of chemokine-mediated diseases” (GALDERMA RESEARCH & DEVELOPMENT, priority 2011, dated 2016).

For series [1], the target named is CXCR3 (Homo sapiens (Human), UniProt P49682). The experiment in a line: Calcium flux on Chem-1 cells expressing the chemokine receptor (FLIPR TETRA), antagonist mode. The settings on record: IC50 CXCR3, antagonist activity, reference agonist at AC80.
Procedure: (§3) Measurement of calcium flux on cells: The experiments were carried out on the FLIPR TETRA® platform from Molecular Devices.
(§4) Each cell line expressing a chemokine receptor was established on the basis of the Chem-1 cell stably expressing the recombinant form of the chemokine receptor and also an associated G protein, with the aim of coupling the receptor to the calcium signalling pathway.
(§5) 21 receptors belonging to the chemokine receptor family (CCRs and CXCRs) were analyzed.
The nature of series [2]: Metabolic stabilities in hepatic microsomes. The settings on record: hepatic microsomes, pH 7.4, Half-life time (min), hepatic microsomes 0.5 mg/ml protein, compound 1 μM, sampling up to 60 minutes.
Procedure: Hepatic microsomes (Becton Dickinson) were incubated at a protein concentration of 0.5 mg/ml in the reaction medium.
The reaction medium of the microsomes was composed of phosphate buffer, pH: 7.4 at 100 mM, of MgCl2 at 100 mM (50/50), of an ATP-generating system composed of a mixture of nicotinamide adenine diphosphate (NADP), of glucose-6-phosphate (G6P) at 1 mg/ml and of glucose-6-phosphate dehydrogenase (G6PDH) at 4 U/ml. The compounds were tested at 1 μM (0.1% DMSO).
The samples of incubation medium after addition of the microsomes were taken at times 5, 10, 15, 30 and 60 minutes. At each time, the metabolic reaction was stopped by adding methanol (1 volume incubation medium/3 volumes of methanol). The disappearance of the parent product was measured by LC/MS/MS analysis. The time for which 50% of parent product disappeared (T1/2) was calculated from the kinetics of disappearance of the parent product as a function of time.
Series [3] in a line: Metabolic stabilities in hepatocytes. As to conditions: compound 1 μM, sampling up to 24 hours; for half-life at 1 μM: human, hepatocytes, read-out: Half-life time. It is filed as in vitro ADME. The procedure:
The human hepatocytes were supplied by Biopredic in 24-well plates.
The samples of incubation medium after addition of the test compound were taken at times t=0, 1, 2, 4, 6 and 24 hours.

The target of series [4] is CXCR2 receptor (Homo sapiens (Human), UniProt P25025). The experiment in a line: β-arrestin recruitment test, PathHunter HEK293-CXCR2 cells stimulated with CXCL8. The format is cell-based. As to conditions: inhibition of CXCL8 (10 nM) induced β-arrestin 2 recruitment; *9999 signifies not active. On the procedure: (§1) The in vitro affinity of the compounds of the present invention for the CXCR1 and CXCR2 receptors was determined on a functional test of the β-arrestin recruitment after receptor activation type.
(§2) β-Arrestin recruitment test: “PathHunter HEK293-CXCR2” or “U2OS hCXCR1 β-arrestin” cells (DiscoveRx Corporation) were seeded overnight at 10 000 cells/well (384-well format) in 20 μl of Opti MEM I medium. A preincubation with the antagonist or the vehicle for 30 min at 37° C. and 5% CO2 was followed by 60 minutes of stimulation with CXCL8 at 37° C. and 5% CO2. The cells were then placed at ambient temperature for 30 minutes. The PathHunter detection reagent (DiscoveRx Corporation) was added. […] The data were analyzed by means of a non-linear curve procedure using the XLFit4 exploitation software (IDBS) and the IC50 values were determined.
A general note: Recruitment of arrestin is a read-out of receptor activation apart from second messengers.

The target of series [5] is CCR6 (Homo sapiens (Human), UniProt P51684). The experiment in a line: Calcium flux on Chem-1 cells expressing the chemokine receptor (FLIPR TETRA), antagonist mode. It is filed as cell-based. The settings on record: antagonist activity, reference agonist at AC80. For orientation: Calcium assays in cells follow changes in intracellular calcium, usually with a dye or a luminescent sensor.
Procedure: as §3, §4, §5

Series [6] addresses CCR8 (Homo sapiens (Human), UniProt P51685). The description is as above. The format is cell-based. As to conditions: antagonist activity, reference agonist at AC80.
Procedure: as §3, §4, §5
Series [7] deals with FPR1 (Homo sapiens (Human), UniProt P21462). Briefly: Calcium flux on Chem-1 cells expressing the receptor (FLIPR TETRA), antagonist mode. The format is cell-based. The settings on record: antagonist activity, reference agonist at AC80.
Procedure: as §3, §4
The target in series [8] is CCR4 (Homo sapiens (Human), UniProt P51679). Briefly: Calcium flux on Chem-1 cells expressing the chemokine receptor (FLIPR TETRA), antagonist mode.
Procedure: as §3, §4, §5
For series [9], the target named is CCR7 (Homo sapiens (Human), UniProt P32248). Described as above. It is filed as cell-based. As to conditions: antagonist activity, reference agonist at AC80.
Procedure: as §3, §4, §5
In series [10] the target is CXCR1 receptor (Homo sapiens (Human), UniProt P25024). The experiment in a line: β-arrestin recruitment test, U2OS hCXCR1 β-arrestin cells stimulated with CXCL8. It is filed as cell-based. As to conditions: inhibition of CXCL8 (10 nM) induced β-arrestin 2 recruitment; *9999 signifies not active. On the procedure: as §1, §2
The subject of series [11] is receptors of CXCR1 and CXCR2 type. The settings on record: pseudo-irreversible dissociation, literature value; cited from earlier work.
The subject of series [12] is panel of 20 chemokine receptors. The experiment in a line: Receptor profiling on a panel of 20 chemokine receptors (calcium flux). The settings on record: result in words.
Procedure: as §3, §4

Chain of CCR4 (P51679 whole entry): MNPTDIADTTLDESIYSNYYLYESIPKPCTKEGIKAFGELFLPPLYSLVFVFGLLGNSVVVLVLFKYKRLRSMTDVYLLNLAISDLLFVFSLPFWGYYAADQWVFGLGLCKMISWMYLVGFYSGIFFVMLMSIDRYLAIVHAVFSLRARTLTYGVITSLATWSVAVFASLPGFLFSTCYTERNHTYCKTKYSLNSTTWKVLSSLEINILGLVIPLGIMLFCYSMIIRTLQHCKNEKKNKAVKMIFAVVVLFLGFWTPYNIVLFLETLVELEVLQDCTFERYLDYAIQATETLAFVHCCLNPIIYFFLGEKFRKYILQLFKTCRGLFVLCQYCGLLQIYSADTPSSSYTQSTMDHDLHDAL
Chain of CXCR1 receptor (P25024 whole entry): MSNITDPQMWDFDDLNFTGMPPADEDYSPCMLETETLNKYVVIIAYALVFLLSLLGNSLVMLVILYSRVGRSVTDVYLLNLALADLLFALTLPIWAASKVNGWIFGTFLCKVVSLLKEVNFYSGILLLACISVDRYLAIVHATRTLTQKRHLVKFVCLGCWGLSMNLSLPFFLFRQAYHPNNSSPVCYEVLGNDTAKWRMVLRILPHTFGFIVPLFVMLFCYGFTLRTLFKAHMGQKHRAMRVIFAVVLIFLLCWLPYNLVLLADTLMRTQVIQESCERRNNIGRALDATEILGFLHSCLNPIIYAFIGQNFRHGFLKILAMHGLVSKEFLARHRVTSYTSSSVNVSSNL
Chain of CXCR2 receptor (P25025 whole entry): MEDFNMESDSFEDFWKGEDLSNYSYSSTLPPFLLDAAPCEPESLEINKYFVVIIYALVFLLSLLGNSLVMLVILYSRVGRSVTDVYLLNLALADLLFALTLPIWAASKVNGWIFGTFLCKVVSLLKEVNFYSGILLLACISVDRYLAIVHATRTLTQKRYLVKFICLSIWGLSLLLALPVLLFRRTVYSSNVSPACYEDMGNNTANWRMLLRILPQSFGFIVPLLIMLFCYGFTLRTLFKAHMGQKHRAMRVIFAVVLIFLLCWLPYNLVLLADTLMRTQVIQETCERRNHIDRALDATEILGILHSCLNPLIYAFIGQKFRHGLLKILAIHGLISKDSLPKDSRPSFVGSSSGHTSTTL
Chain of CXCR3 (P49682 whole entry): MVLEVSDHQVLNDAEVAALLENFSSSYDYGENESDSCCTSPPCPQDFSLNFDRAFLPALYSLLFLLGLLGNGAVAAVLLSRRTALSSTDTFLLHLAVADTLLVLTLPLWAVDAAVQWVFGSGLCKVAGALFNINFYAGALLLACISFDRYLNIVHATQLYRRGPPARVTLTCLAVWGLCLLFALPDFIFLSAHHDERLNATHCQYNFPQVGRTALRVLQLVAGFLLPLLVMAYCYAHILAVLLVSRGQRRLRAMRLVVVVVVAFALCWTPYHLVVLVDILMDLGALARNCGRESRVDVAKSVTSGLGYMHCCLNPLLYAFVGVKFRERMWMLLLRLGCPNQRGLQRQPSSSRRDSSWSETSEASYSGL
Chain of CCR6 (P51684 whole entry): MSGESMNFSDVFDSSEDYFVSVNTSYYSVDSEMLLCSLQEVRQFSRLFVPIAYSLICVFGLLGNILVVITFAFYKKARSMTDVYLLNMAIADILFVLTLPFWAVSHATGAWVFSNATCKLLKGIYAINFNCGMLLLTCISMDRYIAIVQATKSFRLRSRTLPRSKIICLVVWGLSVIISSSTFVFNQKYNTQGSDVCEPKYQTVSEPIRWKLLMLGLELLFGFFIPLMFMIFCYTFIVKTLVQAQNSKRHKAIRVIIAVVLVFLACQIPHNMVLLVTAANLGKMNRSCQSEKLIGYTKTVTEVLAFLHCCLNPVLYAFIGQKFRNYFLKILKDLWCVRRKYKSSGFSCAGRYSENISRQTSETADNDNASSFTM
Chain of CCR7 (P32248 25-378): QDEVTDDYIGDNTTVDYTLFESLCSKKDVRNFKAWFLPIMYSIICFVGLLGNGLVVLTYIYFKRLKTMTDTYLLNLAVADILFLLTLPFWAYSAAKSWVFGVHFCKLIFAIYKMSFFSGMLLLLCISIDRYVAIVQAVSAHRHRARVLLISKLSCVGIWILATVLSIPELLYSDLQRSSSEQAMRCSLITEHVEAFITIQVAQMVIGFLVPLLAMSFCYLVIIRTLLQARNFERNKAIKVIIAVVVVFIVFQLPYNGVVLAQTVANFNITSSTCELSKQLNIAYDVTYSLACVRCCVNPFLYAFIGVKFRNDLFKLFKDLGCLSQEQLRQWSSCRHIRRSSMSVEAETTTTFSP
Chain of CCR8 (P51685 whole entry): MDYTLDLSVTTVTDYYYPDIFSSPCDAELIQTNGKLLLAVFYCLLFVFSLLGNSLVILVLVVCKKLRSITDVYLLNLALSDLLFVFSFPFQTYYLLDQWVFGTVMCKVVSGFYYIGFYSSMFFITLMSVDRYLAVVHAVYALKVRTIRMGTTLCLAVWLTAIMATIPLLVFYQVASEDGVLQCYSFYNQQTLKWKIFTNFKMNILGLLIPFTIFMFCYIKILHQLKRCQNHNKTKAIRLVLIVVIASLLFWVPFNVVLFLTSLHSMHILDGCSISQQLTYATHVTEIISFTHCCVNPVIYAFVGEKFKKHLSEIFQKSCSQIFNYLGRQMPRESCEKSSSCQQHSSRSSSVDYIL
Chain of FPR1 (P21462 whole entry): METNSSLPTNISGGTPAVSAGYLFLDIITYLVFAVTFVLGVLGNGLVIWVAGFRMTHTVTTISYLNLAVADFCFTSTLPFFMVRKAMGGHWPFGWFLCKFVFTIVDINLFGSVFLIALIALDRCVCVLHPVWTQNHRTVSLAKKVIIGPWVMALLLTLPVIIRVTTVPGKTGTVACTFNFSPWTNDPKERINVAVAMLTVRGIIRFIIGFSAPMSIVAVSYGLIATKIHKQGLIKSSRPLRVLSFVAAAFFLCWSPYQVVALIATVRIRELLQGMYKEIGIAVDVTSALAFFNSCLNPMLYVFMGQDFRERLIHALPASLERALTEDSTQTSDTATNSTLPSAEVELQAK

What is called IC50 is the concentration at which inhibition is half-maximal. The half-life is the time needed for the level to fall by half in the phase considered. On to `Cc1ccc(C(Nc2c(Nc3cccc(C(=O)N(C)C)c3O)c(=O)c2=O)C2(C)CCCO2)o1` (single isomer, unassigned) [1 (diastereoisomer 2), 2-hydroxy-N,N-dimethyl-3-(2-{[(5-methylfuran-2-yl)-(2-methyltetrahydrofuran-2-yl)methyl]amino}-3,4-dioxo-cyclobut-1-enylamino)benzamide], for which the IC50 came out at 0.055 µM in series [1], 94 nM in [4] and 0.0022 µM in series [5]. The half-life at 1 μM in series [2] was 27 min. In addition, the “Half-life time” value in series [3] (human hepatocytes) worked out at 539 min.

Take `Cc1ccc(C(Nc2c(Nc3cccc(C(=O)N(C)C)c3O)c(=O)c2=O)C2CCCS2)o1` (single isomer, unassigned) [2 (diastereoisomer 2), 2-Hydroxy-N,N-dimethyl-3-(2-{[(5-methylfuran-2-yl)-(tetrahydrothiophen-2-yl)methyl]amino}-3,4-dioxo-cyclobut-1-enylamino)benzamide]: the half-life at 1 μM in series [2] amounted to 11 min. In addition, the values for the IC50 in series [4], in series [6] and in [7] were 35 nM, 0.62 µM and 6.5 µM, respectively.

As to `Cc1ccc(C(Nc2c(Nc3cccc(C(=O)N(C)C)c3O)c(=O)c2=O)C2(C)CCCO2)o1` (single isomer, unassigned) [Example 1 (Enantiomer 2 of diastereoisomer 2), 2-Hydroxy-N,N-dimethyl-3-(2-{[(5-methylfuran-2-yl)-(2-methyltetrahydrofuran-2-yl)methyl]amino}-3,4-dioxo-cyclobut-1-enylamino)benzamide], the IC50 in series [1] was found to be 0.0013 µM; in series [8] it was 0.41 µM; in series [4] it was 53 nM; in series [5], 0.002 µM; in [9] it was 8.7 µM. In addition, in series [3], the half-life at 1 μM worked out at 300 min.

Consider `COC(=O)CN(C)C(=O)c1cccc(Nc2c(N[C@@H](c3ccc(C)o3)C3CCCS3)c(=O)c2=O)c1O` (single isomer, unassigned) [Example 19], for which the IC50 in [1] stood at 0.51 µM; in [8], 0.0081 µM; in series [4] it was 20 nM; in series [10], 42 nM; in series [5], 0.011 µM. Moreover, the half-life at 1 μM in [2] came to 8 min; in [3] it was 214 min.

In the case of `Cc1ccc([C@H](Nc2c(Nc3cccc(C(=O)N(C)CC(F)(F)F)c3O)c(=O)c2=O)C2CCCS2)o1` (single isomer, unassigned; (-)) [Example 18], the IC50 in series [1] came to 0.45 µM; in [8], 0.097 µM; in series [4] it was 15 nM; in [10], 36 nM. The figures for the half-life at 1 μM in series [2] and in series [3] were 15 min and 82 min, respectively.

In the case of `Cc1ccc(C(Nc2c(Nc3ccc(Cl)c(S(=O)(=O)N4CCN(C)CC4)c3O)c(=O)c2=O)C2CCCS2)o1` (single isomer, unassigned; (-)) [Example 22, (−)-3-[4-chloro-2-hydroxy-3-(4-methylpiperazine-1-sulfonyl)phenylamino]-4-{[(5-methylfuran-2-yl)-(tetrahydrothiophen-2-yl)methyl]amino}cyclobut-3-ene-1,2-dione], the IC50 was found to be 0.15 µM in series [1], 0.0094 µM in [8], 17 nM in series [4] and 30 nM in [10]. Further, the half-life at 1 μM in series [2] was determined as 7 min; in series [3], 49 min.

With `CC[C@@H](Nc1c(Nc2cccc(C(=O)N(C)C)c2O)c(=O)c1=O)c1ccc(C)o1` [SCH-527123], in [11], the dissociation time entry is “about 22 h”. In [12], the “activity on the chemokine receptors of the panel (CCR4, CCR6, CCR7, CCR8, CXCR3, FPR1)” value was “inactive or not very active at all”.
